Experimental data: patent US5571521A (priority 1995, dated 1996)
Where two headings read alike, the source gives them in different places.

Assays:
[1] = test system: pure cultures of organisms; assay: Antibacterial action in pure cultures on blood agar plates; type: cell-based
host tissue = assay: Toxicity toward host tissue
[2] = test system: Enterococcus (Group D Strep); assay: Inhibition of microorganism growth in Miller-Hinton broth (Minimal Inhibitory Concentration); type: cell-based; details: Table 1; 20 micrograms/ml; evaluated at 18 hours
Procedure: (§1) For each of the microorganisms listed below a culture was grown in Miller-Hinton broth (24 hour culture), and then diluted at a 1:100 ratio. This diluted culture was then grown for an additional two hours, after which the silver diphenyl hydantoin was added. […]

Klebsiella = assay: as above; type: cell-based; details: Table 1, evaluated at 18 hours
Procedure: as §1

Pseudomonas aeruginosa = assay: as above; type: cell-based; details: Table 1, evaluated at 18 hours
Procedure: as §1

Staphloccoccus aereus = assay: as above; type: cell-based; details: Table 1, evaluated at 18 hours
Procedure: as §1

Candida Albicans = assay: as above; type: cell-based; details: Table 1, evaluated at 18 hours
Procedure: as §1

Venturia inaequalis = assay: Control of apple scab on plants; type: in vivo; details: inoculated 24 hours after application
Plasmopara viticola = assay: Control of grape downy mildew on plants; type: in vivo; details: for Percent Disease Control, Preventive: inoculated 24 hours after application; for Percent Disease Control, Curative: inoculated 24 hours before application
Seratia = assay: Inhibition of microorganism growth in Miller-Hinton broth (Minimal Inhibitory Concentration); type: cell-based, Serratia M.; details: Table 1, evaluated at 18 hours
Procedure: as §1

Phytophthora infestans = type: in vivo
Cercospora arachidicola = assay: Control of peanut leafspot on plants; type: in vivo; details: for Percent Disease Control, Preventive: inoculated 24 hours after application; for Percent Disease Control, Curative: inoculated 24 hours before application

Substance: Silver Ammonium Diphenyl Hydantoin [Silver ammonium phenytoin]
- Antibacterial action [1]: Antibacterial action, was also demonstrated
- toxicity toward host tissue (host tissue): low toxicity toward host tissue
- inhibition (Minimal Inhibitory Concentration table) [2]: +
- inhibition (Minimal Inhibitory Concentration table) (Klebsiella; 1 microgram/ml): +
- inhibition (Minimal Inhibitory Concentration table) (Klebsiella; 10 micrograms/ml): +
- inhibition (Minimal Inhibitory Concentration table) (Klebsiella; 20 micrograms/ml): +
- inhibition (Minimal Inhibitory Concentration table) (Pseudomonas aeruginosa; 20 micrograms/ml): +
- inhibition (Minimal Inhibitory Concentration table) (Pseudomonas aeruginosa; 40 micrograms/ml): +
- inhibition (Minimal Inhibitory Concentration table) (Staphloccoccus aereus; 20 micrograms/ml): +
- inhibition (Minimal Inhibitory Concentration table) (Staphloccoccus aereus; 40 micrograms/ml): +
- inhibition (Minimal Inhibitory Concentration table) (Candida Albicans; 20 micrograms/ml): +
- inhibition (Minimal Inhibitory Concentration table) (Candida Albicans; 40 micrograms/ml): +
- Percent Disease Control, Preventive (Venturia inaequalis; 5 ppm): 17%
- Percent Disease Control, Preventive (Venturia inaequalis; 20 ppm): 95%
- Percent Disease Control, Preventive (Venturia inaequalis; 100 ppm): 98%
- Percent Disease Control, Preventive (Plasmopara viticola; 5 ppm): 24%
- Percent Disease Control, Curative (Plasmopara viticola; 5 ppm): 0%
- Percent Disease Control, Preventive (Plasmopara viticola; 20 ppm): 49%
- Percent Disease Control, Curative (Plasmopara viticola; 20 ppm): 0%
- Percent Disease Control, Preventive (Plasmopara viticola; 100 ppm): 87%
- Percent Disease Control, Curative (Plasmopara viticola; 100 ppm): 0%
- inhibition (Minimal Inhibitory Concentration table) (Seratia; 10 micrograms/ml): +
- inhibition (Minimal Inhibitory Concentration table) (Seratia; 20 micrograms/ml): +
- inhibition (Minimal Inhibitory Concentration table) (Seratia; 40 micrograms/ml): +
- Percent Disease Control (Phytophthora infestans; 5 ppm): 17%
- Percent Disease Control (Phytophthora infestans; 20 ppm): 95%
- Percent Disease Control (Phytophthora infestans; 100 ppm): 98%
- Percent Disease Control, Preventive (Cercospora arachidicola; 5 ppm): 16%
- Percent Disease Control, Curative (Cercospora arachidicola; 5 ppm): 0%
- Percent Disease Control, Curative (Cercospora arachidicola; 20 ppm): 0%
- Percent Disease Control, Preventive (Cercospora arachidicola; 100 ppm): 78%
- Percent Disease Control, Curative (Cercospora arachidicola; 100 ppm): 60%
